ChEMBL document CHEMBL3867482, “Design and synthesis of water soluble β-aminosulfone analogues of SCH 900229 as γ-secretase inhibitors” (Bioorg Med Chem Lett, 2016)
Values after ≈ are worked out from the molar mass of the structure shown.

Columns and labels:
Cytochrome P450 3A4 [1] = biological target: T1, Cytochrome P450 3A4 (Homo sapiens, UniProt P08684); experiment: Inhibition of CYP3A4 in human liver microsomes after 30 secs by LC/MS/MS analysis; type: ADME
[2] = Selectivity ratio of IC50 for human gamma secretase PS2 (1 to 467 residues) expressed in baculovirus infected sf9 cells co-expressing aph-1a to IC50 for gamma secretase PS1 (1 to 448 residues) expressed in baculovirus infected sf9 cells co-expressing aph-1a
[3] = Clearance in human hepatocytes assessed per million cells by HPLC/atmospheric pressure chemical ionization/MS analysis; type: ADME, cell-based, Hepatocyte; settings: read-out: CLH
[4] = Kinetic solubility of compound; type: physicochemical; settings: read-out: Kinetic_solubility
[5] = Clearance in rat hepatocytes assessed per million cells by HPLC/atmospheric pressure chemical ionization/MS analysis; type: ADME, cell-based, Hepatocyte; settings: read-out: CLH
Mus musculus [6] = experiment: Antialzheimer activity in B6C3F1 mouse assessed as amyloid beta 40 level in plasma at 10 mg/kg, po administered as single dose after 3 hrs relative to control; type: functional
Cytochrome P450 3A4 [7] = biological target: T1, Cytochrome P450 3A4; experiment: Inhibition of CYP3A4 in human liver microsomes preincubated for 30 mins after 30 secs by LC/MS/MS analysis; type: ADME
Cytochrome P450 2C9 = Cytochrome P450 2C9 (Homo sapiens, UniProt P11712); experiment: Inhibition of CYP2C9 in human liver microsomes after 30 secs by LC/MS/MS analysis; type: ADME
Cytochrome P450 2C9, sequence (P11712 whole entry): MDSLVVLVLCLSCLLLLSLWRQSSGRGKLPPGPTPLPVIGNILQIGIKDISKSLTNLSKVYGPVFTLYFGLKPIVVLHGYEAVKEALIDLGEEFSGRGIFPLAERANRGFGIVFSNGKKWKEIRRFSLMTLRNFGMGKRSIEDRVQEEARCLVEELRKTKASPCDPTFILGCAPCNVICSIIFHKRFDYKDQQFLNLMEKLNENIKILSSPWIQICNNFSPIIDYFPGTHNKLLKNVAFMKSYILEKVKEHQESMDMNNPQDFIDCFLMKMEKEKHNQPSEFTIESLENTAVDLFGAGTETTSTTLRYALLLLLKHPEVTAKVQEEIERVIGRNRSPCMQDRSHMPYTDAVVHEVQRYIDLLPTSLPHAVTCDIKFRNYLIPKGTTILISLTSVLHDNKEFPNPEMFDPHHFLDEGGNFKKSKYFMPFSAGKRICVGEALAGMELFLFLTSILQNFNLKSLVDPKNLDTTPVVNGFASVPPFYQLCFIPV

[8] = AUC (0 to 6 hrs) in mouse at 10 mg/kg, po by LC/MS/MS analysis; type: ADME, organism-based; design: time < 6 hr, dose 10 mg/kg, route oral; settings: in vivo; for AUC: 6 h, BLD = below limit of detection
[9] = Inhibition of gamma-secretase in HEK293 cell membranes expressing human APP Swedish/London double mutant assessed as reduction in amyloid beta 40 formation after 1 hr by electrochemiluminescence based immunoassay
[10] = Clearance in dog hepatocytes assessed per million cells by HPLC/atmospheric pressure chemical ionization/MS analysis; type: ADME, cell-based, Canis lupus familiaris, Hepatocyte; settings: read-out: CLH
Cytochrome P450 2D6 = Cytochrome P450 2D6 (Homo sapiens, UniProt P10635); experiment: Inhibition of CYP2D6 in human liver microsomes after 30 secs by LC/MS/MS analysis; type: ADME
Cytochrome P450 2D6, sequence (P10635 whole entry): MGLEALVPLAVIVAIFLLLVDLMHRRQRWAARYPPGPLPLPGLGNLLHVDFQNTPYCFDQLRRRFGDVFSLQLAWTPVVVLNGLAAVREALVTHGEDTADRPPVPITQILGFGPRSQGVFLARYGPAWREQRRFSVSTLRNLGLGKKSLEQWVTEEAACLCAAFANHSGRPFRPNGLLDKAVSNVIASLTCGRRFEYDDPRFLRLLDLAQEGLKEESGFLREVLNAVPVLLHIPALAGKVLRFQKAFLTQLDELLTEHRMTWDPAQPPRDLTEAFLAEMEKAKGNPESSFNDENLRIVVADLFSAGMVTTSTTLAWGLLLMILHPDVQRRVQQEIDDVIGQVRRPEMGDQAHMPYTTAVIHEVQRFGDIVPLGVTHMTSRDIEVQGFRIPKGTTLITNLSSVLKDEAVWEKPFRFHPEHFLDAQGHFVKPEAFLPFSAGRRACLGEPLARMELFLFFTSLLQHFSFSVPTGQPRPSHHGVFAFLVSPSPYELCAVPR

[11] = Clearance in monkey hepatocytes assessed per million cells by HPLC/atmospheric pressure chemical ionization/MS analysis; type: ADME, cell-based, Macaca mulatta, Hepatocyte; settings: rhesus monkey, read-out: CLH
Mus musculus [12] = experiment: Antialzheimer activity in B6C3F1 mouse assessed as amyloid beta 40 level in cortex at 10 mg/kg, po administered as single dose after 3 hrs relative to control; type: functional
[13] = Ratio of drug level in brain to plasma in mouse at 6 hrs; type: ADME, organism-based; settings: brain and plasma, read-out: BPR

T1 sequence (P08684 whole entry, the tested form may be a part): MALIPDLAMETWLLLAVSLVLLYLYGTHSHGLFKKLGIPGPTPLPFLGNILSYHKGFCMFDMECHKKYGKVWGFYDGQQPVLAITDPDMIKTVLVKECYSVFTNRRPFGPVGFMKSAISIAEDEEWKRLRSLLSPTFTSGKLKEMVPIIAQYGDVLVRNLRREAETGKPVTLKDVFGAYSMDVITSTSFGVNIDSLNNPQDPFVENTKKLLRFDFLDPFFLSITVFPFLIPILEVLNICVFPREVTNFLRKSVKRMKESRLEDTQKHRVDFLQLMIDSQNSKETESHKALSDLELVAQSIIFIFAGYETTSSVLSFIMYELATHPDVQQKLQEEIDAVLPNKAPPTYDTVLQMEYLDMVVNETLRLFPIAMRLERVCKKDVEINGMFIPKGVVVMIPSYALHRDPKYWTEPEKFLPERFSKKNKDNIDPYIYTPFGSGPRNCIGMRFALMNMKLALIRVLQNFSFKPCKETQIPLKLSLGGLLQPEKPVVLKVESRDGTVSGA

O=S(=O)(CC[C@@H]1OCC[C@@]2(S(=O)(=O)c3ccc(Cl)cc3)c3c(F)ccc(F)c3OC[C@@H]12)CCN1CCNCC1
IC50 (Cytochrome P450 3A4 [1]): > 20000 nM | Ratio IC50 [2]: 10 | hepatocyte CLint [3]: 5.3 µL/min/1e6 cells | solubility kinetic [4]: 200 µM (≈ 121 µg/mL) | hepatocyte CLint [5]: 6.1 µL/min/1e6 cells | Activity (Mus musculus [6]): -95% | IC50 (Cytochrome P450 3A4 [7]): > 20000 nM | IC50 (Cytochrome P450 2C9): > 20000 nM | AUC [8]: Bld | IC50 [9]: 0.8 nM | hepatocyte CLint [10]: 7.7 µL/min/1e6 cells | IC50 (Cytochrome P450 2D6): > 20000 nM | hepatocyte CLint [11]: 12.7 µL/min/1e6 cells

O=S(=O)(CC[C@@H]1OCC[C@@]2(S(=O)(=O)c3ccc(Cl)cc3)c3c(F)ccc(F)c3OC[C@@H]12)CC1=NCCN1
IC50 (Cytochrome P450 3A4 [1]): 13200 nM | hepatocyte CLint [3]: 13.7 µL/min/1e6 cells | solubility kinetic [4]: 20 µM (≈ 11.5 µg/mL) | hepatocyte CLint [5]: 25.9 µL/min/1e6 cells | Activity (Mus musculus [6]): -86% | IC50 (Cytochrome P450 3A4 [7]): 1000 nM | IC50 (Cytochrome P450 2C9): > 20000 nM | AUC(0-t) at 6 h [8]: 0.057 µM·h | IC50 [9]: 5.9 nM | hepatocyte CLint [10]: 20.1 µL/min/1e6 cells | IC50 (Cytochrome P450 2D6): > 20000 nM | hepatocyte CLint [11]: 32 µL/min/1e6 cells

O=S(=O)(CC[C@@H]1OCC[C@@]2(S(=O)(=O)c3ccc(Cl)cc3)c3c(F)ccc(F)c3OC[C@@H]12)CCN1CCCCC1
Ratio IC50 [2]: 9 | IC50 [9]: 1.3 nM

CN(C)CCS(=O)(=O)CC[C@@H]1OCC[C@@]2(S(=O)(=O)c3ccc(Cl)cc3)c3c(F)ccc(F)c3OC[C@@H]12
IC50 (Cytochrome P450 3A4 [1]): > 20000 nM | Activity (Mus musculus [12]): -45% | Ratio IC50 [2]: 20 | hepatocyte CLint [3]: 57.2 µL/min/1e6 cells | solubility kinetic [4]: 50 µM (≈ 28.2 µg/mL) | hepatocyte CLint [5]: 66.7 µL/min/1e6 cells | Activity (Mus musculus [6]): -21% | IC50 (Cytochrome P450 3A4 [7]): 9000 nM | IC50 (Cytochrome P450 2C9): > 20000 nM | AUC [8]: Bld | IC50 [9]: 1.7 nM | hepatocyte CLint [10]: 56.5 µL/min/1e6 cells | IC50 (Cytochrome P450 2D6): > 20000 nM | hepatocyte CLint [11]: 65 µL/min/1e6 cells

Cl.O=S(=O)(CC[C@@H]1OCC[C@@]2(S(=O)(=O)c3ccc(Cl)cc3)c3c(F)ccc(F)c3OC[C@@H]12)C[C@H]1CCCN1
solubility kinetic [4]: ≥ 200 µM

O=S(=O)(CC[C@@H]1OCC[C@@]2(S(=O)(=O)c3ccc(Cl)cc3)c3c(F)ccc(F)c3OC[C@@H]12)CCN1CC[C@@H](O)C1
Ratio IC50 [2]: 12 | IC50 [9]: 0.6 nM

Cl.O=S(=O)(CC[C@@H]1OCC[C@@]2(S(=O)(=O)c3ccc(Cl)cc3)c3c(F)ccc(F)c3OC[C@@H]12)[C@@H]1CCNC1
solubility kinetic [4]: ≥ 200 µM

O=S(=O)(CC[C@@H]1OCC[C@@]2(S(=O)(=O)c3ccc(Cl)cc3)c3c(F)ccc(F)c3OC[C@@H]12)CCN1CC[C@H](O)C1
Ratio IC50 [2]: 12 | IC50 [9]: 0.8 nM

O=S(=O)(CC[C@@H]1OCC[C@@]2(S(=O)(=O)c3ccc(Cl)cc3)c3c(F)ccc(F)c3OC[C@@H]12)CCN1CCOCC1
Ratio IC50 [2]: 10 | IC50 [9]: 3.7 nM

O=S(=O)(CCNC1CCC1)CC[C@@H]1OCC[C@@]2(S(=O)(=O)c3ccc(Cl)cc3)c3c(F)ccc(F)c3OC[C@@H]12
IC50 [9]: 2 nM

Cl.O=S(=O)(CC[C@@H]1OCC[C@@]2(S(=O)(=O)c3ccc(Cl)cc3)c3c(F)ccc(F)c3OC[C@@H]12)C[C@@H]1CCCN1
solubility kinetic [4]: ≥ 200 µM

CCNCCS(=O)(=O)CC[C@@H]1OCC[C@@]2(S(=O)(=O)c3ccc(Cl)cc3)c3c(F)ccc(F)c3OC[C@@H]12 [listing 1 of 2 here]
Ratio IC50 [2]: 18

CNCCS(=O)(=O)CC[C@@H]1OCC[C@@]2(S(=O)(=O)c3ccc(Cl)cc3)c3c(F)ccc(F)c3OC[C@@H]12.Cl
solubility kinetic [4]: ≥ 200 µM

O=S(=O)(CC[C@@H]1OCC[C@@]2(S(=O)(=O)c3ccc(Cl)cc3)c3c(F)ccc(F)c3OC[C@@H]12)C[C@@H]1CCCN1
Ratio IC50 [2]: 14

O=S(=O)(CC[C@@H]1OCC[C@@]2(S(=O)(=O)c3ccc(Cl)cc3)c3c(F)ccc(F)c3OC[C@@H]12)CCN1CCC1
Ratio IC50 [2]: 17 | IC50 [9]: 1.6 nM

Cl.NCCS(=O)(=O)CC[C@@H]1OCC[C@@]2(S(=O)(=O)c3ccc(Cl)cc3)c3c(F)ccc(F)c3OC[C@@H]12
solubility kinetic [4]: ≥ 200 µM

CCNCCS(=O)(=O)CC[C@@H]1OCC[C@@]2(S(=O)(=O)c3ccc(Cl)cc3)c3c(F)ccc(F)c3OC[C@@H]12.Cl
solubility kinetic [4]: ≥ 200 µM

O=S(=O)(CC[C@@H]1OCC[C@@]2(S(=O)(=O)c3ccc(Cl)cc3)c3c(F)ccc(F)c3OC[C@@H]12)CCN1CCCC1
Ratio IC50 [2]: 13 | IC50 [9]: 1.1 nM

O=S(=O)(CC[C@@H]1OCC[C@@]2(S(=O)(=O)c3ccc(Cl)cc3)c3c(F)ccc(F)c3OC[C@@H]12)[C@H]1CCNC1
Ratio IC50 [2]: 30

NCCS(=O)(=O)CC[C@@H]1OCC[C@@]2(S(=O)(=O)c3ccc(Cl)cc3)c3c(F)ccc(F)c3OC[C@@H]12 [listing 1 of 2 here]
IC50 (Cytochrome P450 3A4 [1]): 15100 nM | Activity (Mus musculus [12]): -52% | hepatocyte CLint [3]: 8.5 µL/min/1e6 cells | hepatocyte CLint [5]: 12.1 µL/min/1e6 cells | Activity (Mus musculus [6]): -54% | IC50 (Cytochrome P450 3A4 [7]): 2800 nM | IC50 (Cytochrome P450 2C9): > 20000 nM | AUC(0-t) at 6 h [8]: 0.582 µM·h | IC50 [9]: 0.8 nM | hepatocyte CLint [10]: 6.4 µL/min/1e6 cells | IC50 (Cytochrome P450 2D6): > 20000 nM | hepatocyte CLint [11]: 20.3 µL/min/1e6 cells

O=S(=O)(CC[C@@H]1OCC[C@@]2(S(=O)(=O)c3ccc(Cl)cc3)c3c(F)ccc(F)c3OC[C@@H]12)[C@@H]1CCNC1
Ratio IC50 [2]: 21

CC(C)NCCS(=O)(=O)CC[C@@H]1OCC[C@@]2(S(=O)(=O)c3ccc(Cl)cc3)c3c(F)ccc(F)c3OC[C@@H]12
Ratio IC50 [2]: 30 | IC50 [9]: 0.5 nM

O=S(=O)(CCO)CC[C@@H]1OCC[C@@]2(S(=O)(=O)c3ccc(Cl)cc3)c3c(F)ccc(F)c3OC[C@@H]12
Activity (Mus musculus [12]): -46% | solubility kinetic [4]: > 200 µM | Activity (Mus musculus [6]): -42% | IC50 [9]: 1 nM

CCNCCS(=O)(=O)CC[C@@H]1OCC[C@@]2(S(=O)(=O)c3ccc(Cl)cc3)c3c(F)ccc(F)c3OC[C@@H]12 [listing 2 of 2 here]
IC50 (Cytochrome P450 3A4 [1]): > 20000 nM | hepatocyte CLint [3]: 15.1 µL/min/1e6 cells | hepatocyte CLint [5]: 29.1 µL/min/1e6 cells | IC50 (Cytochrome P450 3A4 [7]): 1400 nM | IC50 (Cytochrome P450 2C9): > 20000 nM | AUC(0-t) at 6 h [8]: 1.35 µM·h | IC50 [9]: 0.9 nM | hepatocyte CLint [10]: 10.8 µL/min/1e6 cells | Kp at 6 h [13]: 0.4 | IC50 (Cytochrome P450 2D6): > 20000 nM | hepatocyte CLint [11]: 44.6 µL/min/1e6 cells

Cl.O=S(=O)(CC[C@@H]1OCC[C@@]2(S(=O)(=O)c3ccc(Cl)cc3)c3c(F)ccc(F)c3OC[C@@H]12)C1CNC1
solubility kinetic [4]: > 200 µM

O=S(=O)(CC[C@@H]1OCC[C@@]2(S(=O)(=O)c3ccc(Cl)cc3)c3c(F)ccc(F)c3OC[C@@H]12)C[C@H]1CCCN1 [listing 1 of 2 here]
Ratio IC50 [2]: 23

O=C(O)CS(=O)(=O)CC[C@@H]1OCC[C@@]2(S(=O)(=O)c3ccc(Cl)cc3)c3c(F)ccc(F)c3OC[C@@H]12
Ratio IC50 [2]: 22 | solubility kinetic [4]: > 200 µM | Activity (Mus musculus [6]): 47% | IC50 [9]: 2.7 nM

CS(=O)(=O)CC[C@@H]1OCC[C@@]2(S(=O)(=O)c3ccc(Cl)cc3)c3c(F)ccc(F)c3OC[C@@H]12
Activity (Mus musculus [12]): -78% | Ratio IC50 [2]: 25 | Activity (Mus musculus [6]): -89% | IC50 [9]: 1.3 nM

Cl.O=S(=O)(CC[C@@H]1OCC[C@@]2(S(=O)(=O)c3ccc(Cl)cc3)c3c(F)ccc(F)c3OC[C@@H]12)[C@H]1CCNC1
solubility kinetic [4]: ≥ 200 µM

CNCCS(=O)(=O)CC[C@@H]1OCC[C@@]2(S(=O)(=O)c3ccc(Cl)cc3)c3c(F)ccc(F)c3OC[C@@H]12
Ratio IC50 [2]: 25

NCCS(=O)(=O)CC[C@@H]1OCC[C@@]2(S(=O)(=O)c3ccc(Cl)cc3)c3c(F)ccc(F)c3OC[C@@H]12 [listing 2 of 2 here]
Ratio IC50 [2]: 35

O=S(=O)(CC[C@@H]1OCC[C@@]2(S(=O)(=O)c3ccc(Cl)cc3)c3c(F)ccc(F)c3OC[C@@H]12)C[C@H]1CCCN1 [listing 2 of 2 here]
IC50 (Cytochrome P450 3A4 [1]): > 20000 nM | Activity (Mus musculus [12]): -42% | hepatocyte CLint [5]: 12.8 µL/min/1e6 cells | Activity (Mus musculus [6]): -71% | IC50 (Cytochrome P450 3A4 [7]): 1000 nM | IC50 (Cytochrome P450 2C9): > 20000 nM | AUC(0-t) at 6 h [8]: 2.52 µM·h | IC50 [9]: 1 nM | hepatocyte CLint [10]: 13.6 µL/min/1e6 cells | Kp at 6 h [13]: 0.4 | IC50 (Cytochrome P450 2D6): > 20000 nM | hepatocyte CLint [11]: 28 µL/min/1e6 cells

O=S(=O)(CC[C@@H]1OCC[C@@]2(S(=O)(=O)c3ccc(Cl)cc3)c3c(F)ccc(F)c3OC[C@@H]12)C1CNC1
Activity (Mus musculus [6]): -15% | IC50 [9]: 1.3 nM
